Reference: US7718635B2, “Triterpenic acid derivative and preparation for external application for skin comprising the same” (Pola Chemical Industries Inc., priority 2005, dated 2010)
Where two headings read alike, the source gives them in different places.

Legend:
[1] = Comparison of solubilities (saturated concentration by HPLC); assay type: physicochemical; conditions: for solubility thermodynamic at 16 h: thermodynamic from solid
Protocol: The thus-obtained ursolic acid phosphate was compared to ursolic acid (control) on their solubilities. The mixture was stirred for 16 hours and was passed through a 0.45-μm filter. After that, concentration measurement was performed by HPLC.

[2] = system: Hartley white guinea pigs; assay: Guinea pig maximization test (skin sensitivity); assay type: in vivo; conditions: challenge 5%, 0.5%, Draize criteria
Protocol: A guinea pig maximization test was performed using ten Hartley white guinea pigs to examine the presence or absence of the skin sensitivity of ursolic acid phosphate to the guinea pigs. An emulsified product containing distilled water and Freund's complete adjuvant (FCA) in equal volumes, a test substance (dissolved in olive oil, 5%), and a mixture including a test substance and FCA in equal volumes were separately injected intracutaneously to five guinea pigs in two sites with 0.1 mL, respectively. The next day, the hair of the intracutaneous injection sites was shaved, and a mixture of 10% sodium lauryl sulfate/petrolatum was applied thereto. The day after that, 0.1 ml of 5% ursolic acid phosphate (dissolved in olive oil) was applied with a patch for 48 hours to the shaved sites to complete induction of sensitization. After completion of induction of sensitization, a 10-day rest period was provided. After completion of the period, the hair in back untreated sites was shaved. Then, each of 0.1 ml of 5%, 0.5%, and 0% ursolic acid phosphate (dissolved in olive oil) was applied with a patch for 24 hours to respective three sites to […]. Thirty minutes and 24 hours after patch removal, skin reactions were observed. […]

| solubility compared to that of ursolic acid [1] | Saturated concentration ([1]; 16 h, pH 7) [µg/mL] | Saturated concentration ([1]; 16 h, pH 9) [µg/mL] | solubility thermodynamic at 16 h ([1]; pH 9, aqueous buffer) [µg/mL] | solubility thermodynamic at 16 h ([1]; water) [µg/mL] | skin reactions, sample-administered group versus control group ([2]; 0% in olive oil, patch 24 hours) | Saturated concentration ([1]; Solvent 8% EtOH/0.1 M phosphate Buffer (pH7.0), stirred 16 hours, 0.45-μm filter, HPLC) [µg/mL] | Saturated concentration ([1]; Solvent 8% EtOH/0.1 M phosphate Buffer (pH9), stirred 16 hours, 0.45-μm filter, HPLC) [µg/mL] | Saturated concentration ([1]; Solvent 8% EtOH/DW, stirred 16 hours, 0.45-μm filter, HPLC) [µg/mL] | Saturated concentration ([1]; Solvent EtOH, stirred 16 hours, 0.45-μm filter, HPLC) [µg/mL] | solubility thermodynamic at 16 h ([1]; pH 9, aqueous buffer, Solvent 0.1 M phosphate Buffer (pH9), stirred 16 hours, 0.45-μm filter, HPLC, read-out: Saturated concentration) [µg/mL] | solubility thermodynamic at 16 h ([1]; water, Solvent DW, stirred 16 hours, 0.45-μm filter, HPLC, read-out: Saturated concentration) [µg/mL] | SMILES | sensitization to skin ([2]; induction with 5% in olive oil, 0% patch 24 hours, observed 30 minutes and 24 hours after patch removal) |
| --- | --- | --- | --- | --- | --- | --- | --- | --- | --- | --- | --- | --- | --- |
| improved | 31.1 | 7.5 | 120 | 20.1 | no differences |  |  |  |  |  |  | C[C@H]1[C@H](C)CC[C@]2(C(=O)O)CC[C@]3(C)C(=CC[C@@H]4[C@@]5(C)CCC(OP(=O)(O)O)C(C)(C)[C@@H]5CC[C@]43C)[C@H]12 (stereo partly shown) [ursolic acid phosphate, Ursolic acid phosphate] | not observed |
|  |  |  |  |  |  | <1 | <1 | <1 | <1 | < 1 | < 1 | C[C@H]1[C@H](C)CC[C@]2(C(=O)O)CC[C@]3(C)C(=CC[C@@H]4[C@@]5(C)CC[C@H](O)C(C)(C)[C@@H]5CC[C@]43C)[C@H]12 [ursolic acid, reference compound] |  |
